# Source: patent US12377095B2, “Use of ligustrazine nitrone derivatives in treatment and prevention of diabetic complication diseases” (QINGDAO HAILAN PHARMACEUTICALS CO., LTD., priority 2019, dated 2025)
# Legend:
# STZ-induced DKD rats = assay: Serum erythropoietin (ELISA) in STZ-induced DKD rats; assay type: in vivo, rat
# Experimental: Before the injection, the rats were fasted for 12 hours without water. After weighing, the rats were injected with 55 mg/kg STZ intraperitoneally (STZ needs to be injected quickly, and the injection was completed within 10 minutes), and then returned to the cage to ensure that the rats had sufficient drinking water for 24 hours. Rats were injected with an equal volume of citrate buffer (pH 4.5). After STZ injection for 3 weeks, blood was collected from the tail vein, and blood glucose ≥16.7 mmol/L was used as the criteria for the standard of the rats.
# The route of administration is intragastric administration. TBN was administered twice a day (fixed at 9:00-10:00 am and 3:00-4:00 pm), and Losartan was administered once a day (fixed at 9:00-10:00 am) continuously for 6 weeks.
# At the end of the experiment, after rats were anesthetized, blood was taken from the abdominal aorta, allowed to stand for 1 hour, the supernatant was collected by centrifugation at 3000 rmp for 10 min. The serum erythropoietin level was measured according to the kit operating instructions. […] In the measurement, the blank hole was adjusted to zero, and the absorbance (OD value) of each hole was measured in sequence with a wavelength of 450 nm. […]
# db/db mice = assay: Urinary albumin/creatinine ratio in db/db mice, TBN alone and in combination; assay type: in vivo, mouse; details: TBN 30 mg/kg, Losartan 10 mg/kg, TBN+Losartan (FIG. 17)
# Experimental: Grouping and dosing are the same as in Example 9. At the end of the experiment, 24 h urine samples were collected, antiseptic treatment was performed to all urine specimens with toluene, 24 h urine was centrifuged to remove precipitation and placed in a 1.5 mLEP tube and then placed in a refrigerator at −20° C. for later use, urinary albumin content was measured with ELISA kits, urine creatinine levels were detected by use of an automatic biochemical analyzer, and the ratio of both was calculated. The results as shown in FIG. 19 indicate that the ratio of urinary microalbumin to creatinine in DB/DB group was higher than that in wt/wt group, and the db/db mice 24 h urinary albumin creatinine ratio decreased in TBN group, losartan group and TBN-losartan combination group. Referring to this method, metformin (150 mg/kg, qd), and HIF-PH inhibitor roxadustat (10 mg/kg, once 2 every days) were given via oral administration, the combination groups of TBN with respectively metformin and roxadustat also reduce 24 h urinary albumin creatinine ratio.
# STZ-induced SHR rats = assay: HE kidney morphology of STZ-induced SHR rats; assay type: in vivo, rat; details: 60 mg/kg
# Experimental: 6 W-age SHR rats were abstained from food but not water for 12 h before injection, and then intraperitoneally injected with 55 mg/kg STZ after weighing (STZ required for fast injection, to be completed within 10 min), then put back to the cage to ensure that rat has sufficient drinking water in the period of 24 h, and the rats of normal control group were injected with citric acid buffer (pH 4.5) in the same volume. After 3 weeks of STZ injection, retinal venous blood was collected, and blood glucose ≥16.7 mmol/L was used as a molding standard, where the model of SHR rats that meet the above criteria is considered successful.
# The route of administration is intragastrical, TBN is administered twice a day (fixed at 9:00-10:00 am and 3:00-4:00 pm), and Losartan is administered once a day (fixed at 9:00-10:00 am), continuously for 6 weeks.
# The process is the same as in Example 9.
# [1] = tested on: cisplatin-induced C57BL/6J mice; assay: Serum erythropoietin in cisplatin-induced renal anemia C57BL/6J mice; assay type: in vivo, mouse
# Experimental: Modeling method: the animals were randomly divided into 5 groups, i.e., normal control group, model group, three treatment groups, wherein the normal control group was injected with equal volume of normal saline, the model group and three treatment groups were intraperitoneally injected with cisplatin (CDDP) 5 mg/kg once a week, for 4 weeks.
# The route of administration is intragastrical. TBN is administered twice a day (fixed at 9:00-10:00 am and 3:00-4:00 pm), and Roxadustat is administered once every two days (fixed at 9:00-10:00 am), for 4 weeks.
# At the end of the experiment, after rats were anesthetized, the blood was taken from the abdominal aorta, allowed to stand for 1 hour, centrifuged at 3000 rpm for 10 min, and stored in aliquots at −80° C. The content of erythropoietin in the serum was detected by using of a kit. After the administration, compared with the model group, the TBN treatment groups can increase the expression of erythropoietin to varying degrees.
smiles,measurement,setting,value
Cc1nc(C)c(/C=[N+](\[O-])C(C)(C)C)nc1C [TBN],serum EPO content,"STZ-induced DKD rats; 30 mg/kg and 60 mg/kg, P<0.05",increased EPO content with significant statistical difference
same,serum EPO content,"STZ-induced DKD rats; TBN dose groups (10, 30, 60 mg/kg) vs vehicle, to varying degrees",increased
same,24 h urinary albumin creatinine ratio,db/db mice,decreased
same,renal pathological changes (H&E),STZ-induced SHR rats,improvement
same,expression/content of erythropoietin vs model group,"[1]; TBN treatment groups (30, 60 mg/kg), to varying degrees, dose dependence",increase
same,efficacy on EPO content compared with positive control drug,[1]; high-dose group (60 mg/kg) vs Roxadustat 10 mg/kg,stronger than that of the positive control drug
